Values after ≈ are worked out from the molar mass of the structure shown.
Tests used:
[1] = Half life in Wistar rat at 2 mg/kg, iv measured upto 8 hrs by LC-MS/MS analysis; assay type: ADME, organism-based; details: in vivo
[2] = system: Human immunodeficiency virus 1; assay: Antiviral activity against HIV-1 harboring RT L100I mutant infected in human MT4 cells assessed as protection against virus-induced cytopathic effect measured after 5 days by MTT assay; assay type: functional, organism-based; details: Human immunodeficiency virus 1, MT4, 120 h
[3] = Aqueous solubility of the compound at pH 2 at 0.1 to 10 mg; assay type: physicochemical; details: aqueous medium, dose 0.1-10 mg
[4] = system: Human immunodeficiency virus 1; assay: Antiviral activity against HIV-1 harboring RT F227L/V106A double mutant infected in human MT4 cells assessed as protection against virus-induced cytopathic effect measured after 5 days by MTT assay; assay type: functional, organism-based; details: Human immunodeficiency virus 1, MT4, 120 h
[5] = molecular target: Human immunodeficiency virus type 1 reverse transcriptase (Human immunodeficiency virus 1) (UniProt Q72547); assay: Inhibition of HIV-1 reverse transcriptase at 0.267 uM incubated for 1 hrs in presence of biotin-labeled dNTPs by ELISA assay relative to control
[6] = Aqueous solubility of the compound at pH 7.4 at 0.1 to 10 mg; assay type: physicochemical; details: aqueous medium, dose 0.1-10 mg
[7] = Cytotoxicity against human MT4 cells assessed as reduction in cell viability measured after 5 days by MTT assay; assay type: toxicity, cell-based; details: time 5 day
[8] = molecular target: Human immunodeficiency virus type 1 reverse transcriptase (Human immunodeficiency virus 1, UniProt Q72547); assay: Inhibition of HIV-1 reverse transcriptase incubated for 1 hrs in presence of biotin-labeled dNTPs by ELISA assay
[9] = system: Human immunodeficiency virus 1; assay: Antiviral activity against HIV-1 harboring RT RES056 mutant infected in human MT4 cells assessed as protection against virus-induced cytopathic effect measured after 5 days by MTT assay; assay type: functional, organism-based; details: Human immunodeficiency virus 1, MT4, 120 h
[10] = Aqueous solubility of the compound at pH 7.0 at 0.1 to 10 mg; assay type: physicochemical; details: aqueous medium, dose 0.1-10 mg
[11] = system: Human immunodeficiency virus 1; assay: Antiviral activity against HIV-1 harboring RT E138K mutant infected in human MT4 cells assessed as protection against virus-induced cytopathic effect measured after 5 days by MTT assay; assay type: functional, organism-based; details: Human immunodeficiency virus 1, MT4, 120 h
[12] = system: Human immunodeficiency virus 1; assay: Antiviral activity against HIV-1 harboring RT K103N mutant infected in human MT4 cells assessed as protection against virus-induced cytopathic effect measured after 5 days by MTT assay; assay type: functional, organism-based; details: Human immunodeficiency virus 1, MT4, 120 h
[13] = system: Human immunodeficiency virus 1; assay: Antiviral activity against wild type HIV-1 IIIB infected in human MT4 cells assessed as protection against virus-induced cytopathic effect measured after 5 days by MTT assay; assay type: functional, organism-based; details: Human immunodeficiency virus 1, IIIB, MT4, 120 h
[14] = system: Human immunodeficiency virus 1; assay: Antiviral activity against HIV-1 harboring RT Y188L mutant infected in human MT4 cells assessed as protection against virus-induced cytopathic effect measured after 5 days by MTT assay; assay type: functional, organism-based; details: Human immunodeficiency virus 1, MT4, 120 h
[15] = system: Human immunodeficiency virus 1; assay: Antiviral activity against HIV-1 harboring RT Y181C mutant infected in human MT4 cells assessed as protection against virus-induced cytopathic effect measured after 5 days by MTT assay; assay type: functional, organism-based; details: Human immunodeficiency virus 1, MT4, 120 h

half-life [1] [min] | SMILES | EC50 [2] [nM] | solubility [3] [µg/mL] | EC50 [4] [µM] | inhibition [5] [%] | solubility [6] [µg/mL] | CC50 at 120 h [7] [µM] | IC50 [8] [nM] | EC50 [9] [µM] | solubility [10] [µg/mL] | EC50 [11] [nM] | EC50 [12] [nM] | EC50 [13] [nM] | EC50 [14] [µM] | EC50 [15] [µM]
120 | Cc1cc(C#N)cc(C)c1Oc1nc(NC2CCN(Cc3ccc(S(N)(=O)=O)cc3)CC2)nc2ncsc12 | – | – | – | – | – | – | – | – | – | – | – | – | – | –
– | Cc1cc(C#N)cc(C)c1Oc1nc(Nc2ccc(-c3cn(S(=O)(=O)n4ccnc4)nn3)cc2)nc2ccsc12 | 80 | 102 (≈ 179 µM) | 0.26 | 66.5 | 44.2 (≈ 77.6 µM) | 140 | 30 | ≥ 5.64 | 64.7 (≈ 114 µM) | 30 | 10 | 10 | 0.25 | 0.16
54 | Cc1cc(C#N)cc(C)c1Oc1nc(NC2CCN(Cc3ccc(S(N)(=O)=O)cc3)CC2)nc2scnc12 | – | – | – | – | – | – | – | – | – | – | – | – | – | –
– | Cc1cc(C#N)cc(C)c1Oc1nc(Nc2ccc(-c3cn(-c4ccc5c(c4)OCO5)nn3)cc2)nc2ccsc12 | 10900 | – | 77.8 | 50 | – | > 223 | 1050 | > 223 | – | 7170 | 2010 | 1800 | 165 | 69.4
– | Cc1cc(C#N)cc(C)c1Oc1nc(Nc2ccc(-c3cn(Cc4ccc(B(O)O)cc4)nn3)cc2)nc2ccsc12 | 2450 | – | 4.09 | 50.8 | – | 13.4 | 420 | ≥ 5.55 | – | 650 | 410 | 160 | 3.17 | 4.87
96 | Cc1cc(C#N)cc(C)c1Oc1nc(NC2CCN(Cc3ccc(S(N)(=O)=O)cc3)CC2)nc2ccsc12 | – | – | – | 39.1 | – | – | – | – | – | – | – | – | – | –
– | Cc1cc(C#N)cc(C)c1Oc1nc(Nc2ccc(-c3cn(Cc4ccc(C(F)(F)F)cc4)nn3)cc2)nc2ccsc12 | 840 | – | 8.88 | 74.2 | – | 88.2 | 450 | 25.5 | – | 690 | 330 | 190 | 3.12 | 2.39
– | Cc1cc(C#N)cc(C)c1Oc1nc(Nc2ccc(-c3cn(Cc4ccc(C(F)(F)F)cc4F)nn3)cc2)nc2ccsc12 | 2360 | – | 21.8 | 63.6 | – | 129 | 1090 | 34.4 | – | 2450 | 1310 | 810 | 18.6 | 3.69
– | Cc1cc(C#N)cc(C)c1Oc1nc(Nc2ccc(-c3cn(Cc4ccc(S(C)(=O)=O)cc4)nn3)cc2)nc2ccsc12 | 2160 | – | 110 | 51.9 | – | > 206 | 410 | ≥ 104 | – | 140 | 60 | 40 | 124 | 20
– | Cc1cc(C#N)cc(C)c1Oc1nc(Nc2ccc(-c3cn(Cc4ccc(C(N)=O)cc4)nn3)cc2)nc2ccsc12 | 1470 | – | 7.07 | 39.5 | – | > 218 | 250 | > 218 | – | 150 | 80 | 30 | 12 | 6.96

Source: ChEMBL document CHEMBL5329212, “In situ click chemistry-based discovery of 1,2,3-triazole-derived diarylpyrimidines as novel HIV-1 NNRTIs by exploiting the tolerant region I in binding pocket” (Bioorg Med Chem, 2023)
